# Measured values from ChEMBL document CHEMBL6096634, “Exploration of novel 20S proteasome activators featuring anthraquinone structures and their application in hypoxic cardiomyocyte protection” (Bioorg Med Chem, 2024).
# “And” between values parts separate entries of the source, which are not always exact repeats. Identical values can stand only once. The source made the active and inactive calls. The calls are words filed in the database; no cut-off is given here.
# How the values were obtained:
# [1] = target: T1, 20S proteasome (Homo sapiens) (UniProt P49721+P20618+P28074+P28062+P28065+P28072+P25786+P25787+P25788+P25789+P28066+P60900+O14818+Q8TAA3+P40306+A5LHX3+P49720+P28070+Q99436); experiment: Activation of human erythrocyte-derived 20s proteosome using CT-L as peptide substrate at 10 uM by fluorescence based analysis relative to control; format: cell-based; details: filed as activator
# [2] = target: T1, 20S proteasome (Homo sapiens); experiment: (§1) Activation of human erythrocyte-derived 20s proteosome using CT-L as peptide substrate by fluorescence based analysis; format: cell-based; details: for EC200: filed as activator
# H9c2 [3] = experiment: Protection against hypoxia-induced cell damage in rat H9c2 cells at 0.05 uM incubated for 14 hrs by MTT assay; format: functional, cell-based
# [4] = target: T1, 20S proteasome (Homo sapiens); experiment: (§2) Activation of human erythrocyte-derived 20s proteosome using T-L as peptide substrate by fluorescence based analysis; format: cell-based; details: filed as activator
# HEK293 = experiment: Inhibition of […]-induced ER stress in HEK293 cells harbouring XBP1-delta DBD-Luc cells assessed as decrease in luciferase activity incubated for 8 hrs by […]; format: functional, cell-based; details: Homo sapiens, dose 10-20 µM
# 20S proteasome [5] = experiment: as §1; format: cell-based
# H9c2 [6] = experiment: Effect on PCNA expression in rat H9c2 cells at 0.25 uM under normoxic condition by qRT-PCR analysis; format: functional, cell-based
# H9c2 [7] = experiment: Upregulation of Ki-67 expression in rat H9c2 cells at 0.25 uM under normoxic condition by qRT-PCR analysis; format: functional, cell-based
# H9c2 [8] = experiment: Upregulation of Ki-67 expression in rat H9c2 cells at 0.25 uM under hypoxic condition by qRT-PCR analysis; format: functional, cell-based
# H9c2 [9] = experiment: Effect on PCNA expression in rat H9c2 cells at 0.25 uM under hypoxic condition by qRT-PCR analysis; format: functional, cell-based
# H9c2 [10] = experiment: Anti-apoptotic activity in rat H9c2 cells at 0.1 uM preincubated for 24 hrs followed by incubation under hypoxic condition for 18 hrs by Annexin V-FITC and PI staining based flow cytometry analysis; format: functional, cell-based; details: time 42.0 hrs
# H9c2 [11] = experiment: Anti-apoptotic activity in rat H9c2 cells assessed as early apoptotic cells at 0.1 uM preincubated for 24 hrs followed by incubation under hypoxic condition for 18 hrs by Annexin V-FITC and PI staining based flow cytometry analysis (reference value: 4.06%); format: functional; details: time 42 hrs
# H9c2 [12] = experiment: Anti-apoptotic activity in rat H9c2 cells assessed as viable cells at 0.1 uM preincubated for 24 hrs followed by incubation under normoxic condition for 18 hrs by Annexin V-FITC and PI staining based flow cytometry analysis (reference value: 94.7%); format: functional; details: time 42 hrs, read-out: Activity
# H9c2 [13] = experiment: Anti-apoptotic activity in rat H9c2 cells assessed as late apoptotic cells at 0.1 uM preincubated for 24 hrs followed by incubation under normoxic condition for 18 hrs by Annexin V-FITC and PI staining based flow cytometry analysis (reference value: 3.68%); format: functional; details: time 42 hrs
# H9c2 [14] = experiment: Upregulation of Ki-67 expression in rat H9c2 cells at 0.1 uM under normoxic condition by qRT-PCR analysis; format: functional, cell-based
# H9c2 [15] = experiment: Anti-apoptotic activity in rat H9c2 cells at 0.1 uM under hypoxic condition by TUNEL staining based analysis; format: functional, cell-based
# H9c2 [16] = experiment: Anti-apoptotic activity in rat H9c2 cells assessed as viable cells at 0.1 uM preincubated for 24 hrs followed by incubation under hypoxic condition for 18 hrs by Annexin V-FITC and PI staining based flow cytometry analysis (reference value: 85.85%); format: functional; details: time 42 hrs, read-out: Activity
# H9c2 [17] = experiment: Anti-apoptotic activity in rat H9c2 cells assessed as necrotic cells at 0.1 uM preincubated for 24 hrs followed by incubation under normoxic condition for 18 hrs by Annexin V-FITC and PI staining based flow cytometry analysis (reference value: 0.60%); format: functional; details: time 42 hrs
# H9c2 [18] = experiment: Upregulation of Ki-67 expression in rat H9c2 cells at 0.1 uM under hypoxic condition by qRT-PCR analysis; format: functional, cell-based
# H9c2 [19] = experiment: Effect on PCNA expression in rat H9c2 cells at 0.1 uM under hypoxic condition by qRT-PCR analysis; format: functional, cell-based
# H9c2 [20] = experiment: Anti-apoptotic activity in rat H9c2 cells assessed as early apoptotic cells at 0.1 uM preincubated for 24 hrs followed by incubation under normoxic condition for 18 hrs by Annexin V-FITC and PI staining based flow cytometry analysis (reference value: 0.75%); format: functional; details: time 42 hrs
# H9c2 [21] = experiment: Protection against hypoxia-induced cell damage in rat H9c2 cells at 0.1 uM incubated for 14 hrs by MTT assay; format: functional, cell-based
# H9c2 [22] = experiment: Anti-apoptotic activity in rat H9c2 cells at 0.1 uM under normoxic condition by TUNEL staining based analysis; format: functional, cell-based
# H9c2 [23] = experiment: Anti-apoptotic activity in rat H9c2 cells assessed as late apoptotic cells at 0.1 uM preincubated for 24 hrs followed by incubation under hypoxic condition for 18 hrs by Annexin V-FITC and PI staining based flow cytometry analysis (reference value: 8.60%); format: functional; details: time 42 hrs
# H9c2 [24] = experiment: Effect on PCNA expression in rat H9c2 cells at 0.1 uM under normoxic condition by qRT-PCR analysis; format: functional, cell-based
# H9c2 [25] = experiment: Anti-apoptotic activity in rat H9c2 cells assessed as necrotic cells at 0.1 uM preincubated for 24 hrs followed by incubation under hypoxic condition for 18 hrs by Annexin V-FITC and PI staining based flow cytometry analysis (reference value: 0.50%); format: functional; details: time 42 hrs
# H9c2 [26] = experiment: Anti-apoptotic activity in rat H9c2 cells at 0.1 uM preincubated for 24 hrs followed by incubation under normoxic condition for 18 hrs by Annexin V-FITC and PI staining based flow cytometry analysis; format: functional, cell-based; details: time 42.0 hrs
# H9c2 [27] = experiment: Protection against hypoxia-induced cell damage in rat H9c2 cells at 0.025 uM incubated for 14 hrs by MTT assay; format: functional, cell-based
# [28] = target: T1, 20S proteasome (Homo sapiens); experiment: Activation of human erythrocyte-derived 20s proteosome assessed as fold maximum enhancement using T-L as peptide substrate by fluorescence based analysis; format: cell-based; details: filed as activator
# [29] = target: T1, 20S proteasome (Homo sapiens); experiment: Activation of human erythrocyte-derived 20s proteosome assessed as fold maximum enhancement using CT-L as peptide substrate by fluorescence based analysis; format: cell-based; details: filed as activator
# 20S proteasome [30] = experiment: (§3) Activation of human erythrocyte-derived 20s proteosome using Casp-L as peptide substrate by fluorescence based analysis; format: cell-based
# [31] = target: T1, 20S proteasome (Homo sapiens); experiment: as §3; format: cell-based; details: filed as activator
# [32] = target: 26S proteasome (Homo sapiens) (UniProt Q99460+P49721+P20618+P28074+P28062+P28065+P28072+O00487+P25786+P25787+P25788+P25789+P28066+P60900+O14818+Q8TAA3+P40306+A5LHX3+P49720+P28070+Q99436+Q16186+P35998+P62191+P43686+P62333+P17980+P62195+Q13200+O43242+O00232+O00231+Q15008+P51665+Q9UNM6+P55036+P48556+P60896); experiment: Activation of 26s proteosome (unknown origin); format: protein-complex assay
# 20S proteasome [33] = experiment: as §2; format: cell-based
# [34] = target: T1, 20S proteasome (Homo sapiens); experiment: Activation of human erythrocyte-derived 20s proteosome assessed as fold maximum enhancement using Casp-L as peptide substrate by fluorescence based analysis; format: cell-based; details: filed as activator
# [35] = target: T1, 20S proteasome (Homo sapiens); experiment: Activation of 20s proteosome (unknown origin) mediated chymotrypsin-like activity assessed as fold maximum enhancement; format: protein-complex assay; details: filed as activator
# 20S proteasome [36] = experiment: Activation of 20s proteosome (unknown origin) mediated chymotrypsin-like activity; format: protein-complex assay, Homo sapiens
Structure (SMILES),Activity [1],fold change (FC) [4],EC50 (20S proteasome [5]),EC200 [2],inhibition (HEK293),other results
CC(C)CNc1cc(Nc2ccc(N3CCOCC3)cc2)c2c3c(onc13)-c1ccccc1C2=O,425%,5.83,1330 nM,0.12 µM,Active,Activity (H9c2 [3]): Active
Cc1ccccc1Nc1cc(NCC(C)C)c2noc3c2c1C(=O)c1ccccc1-3,486%,6.38,3380 nM,0.67 µM,Active,Activity (H9c2 [10]): Active; Activity (H9c2 [11]): 1.18%; Activity (H9c2 [3]): Active; viability at 0.1 µM (H9c2 [12]): 94.6%; Activity (H9c2 [13]): 3.53%; Activity (H9c2 [14]): Active; Activity (H9c2 [15]): Active; viability at 0.1 µM (H9c2 [16]): 92.8%; Activity (H9c2 [17]): 1.3%; Activity (H9c2 [18]): Active; Activity (H9c2 [19]): inactive; Activity (H9c2 [20]): 0.65%; Activity (H9c2 [21]): Active; Activity (H9c2 [22]): inactive; Activity (H9c2 [23]): 4.73%; Activity (H9c2 [24]): inactive; Activity (H9c2 [25]): 1.34%; Activity (H9c2 [26]): inactive
COc1ccc(Nc2cc(NCC(C)C)c(N)c3c2C(=O)c2ccccc2C3=O)cc1,360%,5.03,1570 nM,0.61 µM,Active,Activity (H9c2 [27]): Active; Activity (H9c2 [6]): inactive; Activity (H9c2 [7]): Active; Activity (H9c2 [8]): Active; Activity (H9c2 [9]): inactive
Cc1cccc(Nc2cc(NCC(C)C)c3noc4c3c2C(=O)c2ccccc2-4)c1,472%,5.98,1830 nM and 850 nM,0.46 µM and 0.38 µM,Active,fold change (FC) [28]: 4.37; Activity (H9c2 [27]): Active; fold change (FC) [29]: 6.22; EC50 (20S proteasome [30]): 1900 nM; EC200 [31]: 0.93 µM; Activity [32]: inactive; EC50 (20S proteasome [33]): 2330 nM; EC200 [4]: 0.75 µM; fold change (FC) [34]: 9.77
CN1CCN(c2ccc(NC(=O)c3cc(O)c4c(c3)C(=O)c3cccc(O)c3C4=O)cc2)CC1,549%,7.32,6120 nM,3.85 µM,,
O=C1c2cccc(O)c2C(=O)c2c(O)cc(C(=O)N3CCN(c4nccs4)CC3)cc21,453%,4.07,3570 nM,1.18 µM,,
CC1(C)CC[C@]2(C(=O)O)CC[C@]3(C)C(=CC[C@@H]4[C@@]5(C)CC[C@H](O)C(C)(C)[C@@H]5CC[C@]43C)[C@@H]2C1 [OLEANOLIC_ACID],,,,,,fold change (FC) [35]: 8; EC50 (20S proteasome [36]): 2700 nM

# Continued, in another order:
Activity [1],fold change (FC) [4],EC50 (20S proteasome [5]),EC200 [2],Structure (SMILES),inhibition (HEK293),other results
148%,,,,CN(CCc1ccccc1)C(=O)c1cc(O)c2c(c1)C(=O)c1cccc(O)c1C2=O,,Activity [2]: inactive
377%,5.38,3680 nM,0.66 µM,Cc1ccc(Nc2cc(NCC(C)C)c(N)c3c2C(=O)c2ccccc2C3=O)cc1,Active,Activity (H9c2 [3]): Active; Activity (H9c2 [6]): inactive; Activity (H9c2 [7]): Active; Activity (H9c2 [8]): Active; Activity (H9c2 [9]): inactive
119%,,,,Cc1cccc(Nc2cc(NCCO)c3noc4c3c2C(=O)c2ccccc2-4)c1,,Activity [2]: inactive
376%,2.23,2570 nM,2.15 µM,CC(C)CNC(=O)c1cc(O)c2c(c1)C(=O)c1cccc(O)c1C2=O,,
233%,3.71,2720 nM,1.37 µM,O=C1c2cccc(O)c2C(=O)c2c(O)cc(C(=O)N3CCC(c4ccccc4)CC3)cc21,,
47.9%,,,,Cc1cccc(Nc2cc(NCCN3CCOCC3)c3noc4c3c2C(=O)c2ccccc2-4)c1,,Activity [2]: inactive
